Key:
[1] = test system: KB; assay: Cytotoxicity against human KB cells by SRB assay; format: functional, cell-based
[2] = test system: NCI-H187; assay: Cytotoxicity against human NCI-H187 cells by SRB assay; format: functional, cell-based
[3] = test system: Plasmodium falciparum; assay: Antiplasmodial activity against Plasmodium falciparum K1 after 42 hrs by microdilution method; format: functional, organism-based; conditions: K1, 42 h
[4] = test system: MCF7; assay: cells; conditions: Homo sapiens
Description: Cytotoxicity against human MCF7 cells by SRB assay

[5] = test system: Vero; assay: Cytotoxicity against african green monkey Vero cells by SRB assay; format: functional, cell-based; conditions: Chlorocebus sabaeus
[6] = test system: NCI-H187; assay: Cytotoxicity against human NCI-H187 cells; format: functional, cell-based

Row | Structure (SMILES) | IC50 [1] | IC50 [2] | IC50 [3] | IC50 [4] | IC50 [5] | IC50 [6]
1 | COc1cc2c3c(cc(O)c2cc1C)C(C)(C)C(=O)[C@]1(OC)Oc2c(cc4c(cc(OC)c5cc(C)c(OC)cc54)c2C)O[C@H]31 | > 10 µM | > 10 µM | > 10 µM | > 10 µM | – | –
2 | COc1cc2c3c(cc(O)c2cc1C)C(C)(C)C(=O)[C@@]1(OC)Oc2c(cc4c(cc(OC)c5cc(C)c(OC)cc54)c2C)O[C@H]31 | > 10 µM | > 10 µM | > 10 µM | > 10 µM | – | –
3 | COc1cc2c3c(cc(OC)c2cc1C)C(C)(O)OC3=O (stereo not given) | > 10 µM | > 10 µM | > 10 µM | > 10 µM | – | –
4 | COc1cc2c3c(cc(O)c2cc1C)C(C)(C)C(=O)OC3=O | > 10 µM | 5.7 µM | 3.9 µM | > 10 µM | > 10 µM | –
5 | COC1=Cc2c(cc(OC3=C4C(=CC(=O)C4(C)C)c4cc(OC)c(C)cc4C3=O)c3cc(C)c(OC)cc23)C(C)(C)C1=O | > 10 µM | – | 2.9 µM | > 10 µM | > 10 µM | 8.3 µM
6 | COC1=C2C(=CC(=O)C(O)=C2C)c2cc(OC)c(C)cc2C1=O | > 10 µM | > 10 µM | 0.0193 µM | > 10 µM | > 10 µM | –
7 | O[C@@H](c1cc(C(F)(F)F)nc2c(C(F)(F)F)cccc12)[C@H]1CCCCN1 (relative stereo) [(S,R)-MEFLOQUINE] | – | – | 0.031 µM | – | – | –
8 | C[C@H]1[C@@H](O)O[C@@H]2O[C@@]3(C)CC[C@H]4[C@H](C)CC[C@@H]1[C@@]24OO3 [ARTENIMOL] | – | – | 0.0025 µM | – | – | –
9 | COc1cccc2c1C(=O)c1c(O)c3c(c(O)c1C2=O)C[C@@](O)(C(=O)CO)C[C@@H]3O[C@H]1C[C@H](N)[C@H](O)[C@H](C)O1 [DOXORUBICIN] | 0.56 µM | 0.14 µM | – | – | – | –
10 | Cc1c2ccncc2c(C)c2c1[nH]c1ccccc12 [ELLIPTECINE] | 1.19 µM | 1.16 µM | – | – | 1.19 µM | –
11 | CC/C(=C(\c1ccccc1)c1ccc(OCCN(C)C)cc1)c1ccccc1 [TAMOXIFEN] | – | – | – | 5.19 µM | – | –

— ChEMBL document CHEMBL2407070, “Bioactive compounds from the roots of Strophioblachia fimbricalyx” (J Nat Prod, 2013)
